According to patent publication US12486234B2, “PAPD5 inhibitors and methods of use thereof” (Children's Medical Center Corporation, priority 2019, dated 2025):

Assays:
PAPD5 [1] = target: T1, PAPD5 (Homo sapiens, UniProt Q8NDF8); assay: RNA oligo-adenylation (oligo-extension) inhibition assay with recombinant PAPD5; assay type: biochemical; parameters: key: minimal activity (0); range from minimal activity (0) to that of compound 1 (+++); range from minimal activity (0) to that of compound 1 (+++); that of compound 1 (+++); details: qualitative measure of RNA oligo-extension inhibition, relative to compound 1
T1 construct: made in house
Procedure: An in vitro RNA polyadenylation assay using recombinant PAPD5, ATP and an oligonucleotide substrate utilized the following phenomenon: ATP utilization by PAPD5 reads out as a decreased luminescence signal produced by luciferase (KinaseGlo, Promega, Madison, WI).
(§1) Qualitative measure of RNA oligo-extension inhibition for the tested compounds, expressed as range from minimal activity (0) to that of compound 1 (+++), and results of a DSF binding assay (shown as shift in temperature at 100 μM of the compound) are shown in the Table 2 below.

PAPD5 [2] = target: T1, PAPD5; assay: DSF binding assay (shift in temperature); details: shift in temperature at 100 μM of the compound
Procedure: as §1

T1 sequence (Q8NDF8 68-698 isoform Q8NDF8-5 limits assumed): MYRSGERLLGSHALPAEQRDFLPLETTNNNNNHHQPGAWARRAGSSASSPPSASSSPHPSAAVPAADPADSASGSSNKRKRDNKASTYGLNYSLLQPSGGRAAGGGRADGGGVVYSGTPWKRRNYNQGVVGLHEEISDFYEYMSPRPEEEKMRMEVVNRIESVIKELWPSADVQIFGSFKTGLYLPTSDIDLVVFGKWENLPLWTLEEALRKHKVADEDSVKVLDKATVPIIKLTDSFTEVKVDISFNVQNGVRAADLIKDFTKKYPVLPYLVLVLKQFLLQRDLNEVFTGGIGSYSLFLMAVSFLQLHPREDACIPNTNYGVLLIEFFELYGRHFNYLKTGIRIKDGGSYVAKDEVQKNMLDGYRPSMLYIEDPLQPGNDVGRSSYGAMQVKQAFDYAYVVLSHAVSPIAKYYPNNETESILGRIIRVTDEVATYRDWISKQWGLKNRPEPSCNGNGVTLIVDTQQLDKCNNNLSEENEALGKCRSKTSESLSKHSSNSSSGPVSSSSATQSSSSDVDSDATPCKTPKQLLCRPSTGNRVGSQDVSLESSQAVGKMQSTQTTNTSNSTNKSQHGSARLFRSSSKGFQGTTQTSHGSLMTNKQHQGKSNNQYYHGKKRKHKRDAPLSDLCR

Row | SMILES | Inhibition of PAPD5 RNA oligo adenylation (PAPD5 [1]) | ΔTm at 100 µM (PAPD5 [2]) | ΔTm 100 μM (PAPD5 [2])
1 | COCCCOc1cc2ncc(C(=O)N(C)C)c(Nc3ccccc3C(=O)O)c2cc1Br [Compound 57A, 2-[[6-bromo-3-(dimethylcarbamoyl)-7-(3-methoxypropoxy)-4-quinolyl]amino]benzoic acid] | +++ | 9.8 °C | –
2 | CCOC(=O)c1ncn2c1[nH]c(=O)c1cnc3ccc(OC(F)(F)F)cc3c12 [Compound 31A, ethyl 14-oxo-7-(trifluoromethoxy)-17,18,19,20-tetrazatetracycloheptadeca-1(7),2(8),3(9),4(18),5(19),10,12-heptaene-12-carboxylate] | 0 | 1.8 °C | –
3 | CCOC(=O)c1cnc2ccc(OC(F)(F)F)cc2c1Nc1ccccc1C#N [Compound 25A, ethyl 4-(2-cyanoanilino)-6-(trifluoromethoxy)quinoline-3-carboxylate] | 0 | 0.1 °C | –
4 | O=C(O)c1ccccc1Nc1c(S(=O)(=O)N2CCOCC2)cnc2ccc(Br)cc12 [Compound 70A, 2-[(6-bromo-3-morpholinosulfonyl-4-quinolyl)amino]benzoic acid] | +++ | 13.7 °C | –
5 | COCCCOc1cc2ncc(C(=O)N3CCOCC3)c(Nc3ccccc3C(=O)O)c2cc1OC [Compound 53A, 2-[[6-methoxy-7-(3-methoxypropoxy)-3-(morpholine-4-carbonyl)-4-quinolyl]amino]benzoic acid] | + | 5.2 °C | –
6 | NS(=O)(=O)c1cnc2ccc(OC(F)(F)F)cc2c1Nc1ccccc1C(=O)O [Compound 16A, 2-[[3-sulfamoyl-6-(trifluoromethoxy)-4-quinolyl]amino]benzoic acid] | +++ | 9.6 °C | –
7 | CCOC(=O)c1cnc2ccc(OC(F)(F)F)cc2c1Nc1scnc1C(=O)OCC [Compound 33A, ethyl 5-[[3-ethoxycarbonyl-6-(trifluoromethoxy)-4-quinolyl]amino]thiazole-4-carboxylate] | 0 | 0.7 °C | –
8 | COCCCOc1cc2ncc(-c3ncco3)c(Nc3ccccc3C(=O)O)c2cc1OC [Compound 58A, 2-[[6-methoxy-7-(3-methoxypropoxy)-3-oxazol-2-yl-4-quinolyl]amino]benzoic acid] | + | 8.5 °C | –
9 | COCCCOc1cc2ncc(C#N)c(Nc3ccccc3C(=O)O)c2cc1OC [Compound 51A, 2-[[3-cyano-6-methoxy-7-(3-methoxypropoxy)-4-quinolyl]amino]benzoic acid] | + | 7.9 °C | –
10 | CCOC(=O)c1cnc2ccc(OC(F)(F)F)cc2c1Nc1scnc1C(=O)O [Compound 5A, 5-((3-(ethoxycarbonyl)-6-(trifluoromethoxy)quinolin-4-yl)amino)thiazole-4-carboxylic acid] | 0 | 2.3 °C | –
11 | NS(=O)(=O)c1cnc2ccc(Cl)cc2c1Nc1ccccc1C(=O)O [Compound 63A, 2-[(6-chloro-3-sulfamoyl-4-quinolyl)amino]benzoic acid] | +++ | 9.3 °C | –
12 | CCOC(=O)c1cnc2ccc(OC(F)(F)F)cc2c1Nc1ccccc1-c1nn[nH]n1 [Compound 10A, ethyl 4-[2-(2H-tetrazol-5-yl)anilino]-6-(trifluoromethoxy)quinoline-3-carboxylate] | + | 1 °C | –
13 | CCOC(=O)c1cnc2ccc(OC(F)(F)F)cc2c1Nc1ccccc1S(=O)(=O)NCC(F)(F)F [Compound 34A, ethyl 4-[2-(2,2,2-trifluoroethylsulfamoyl)anilino]-6-(trifluoromethoxy)quinoline-3-carboxylate] | 0 | 0.3 °C | –
14 | O=C(O)c1ccccc1Nc1c(-c2ncco2)cnc2ccc(OC(F)(F)F)cc12 [Compound 17A, 2-[[3-oxazol-2-yl-6-(trifluoromethoxy)-4-quinolyl]amino]benzoic acid] | +++ | 8.4 °C | –
15 | O=C(O)c1cccnc1Nc1c(C(=O)O)cnc2ccc(OC(F)(F)F)cc12 [Compound 28A, 4-[(3-carboxy-2-pyridyl)amino]-6-(trifluoromethoxy)quinoline-3-carboxylic acid] | + | 5.5 °C | –
16 | CCOC(=O)c1cnc2ccc(OC(F)(F)F)cc2c1Nc1ccccc1C(=O)O [Compound 32A, 2-[[3-ethoxycarbonyl-6-(trifluoromethoxy)-4-quinolyl]amino]benzoic acid] | +++ | 7.9 °C | –
17 | O=C(O)c1cccn2c(=O)c3cnc4ccc(OC(F)(F)F)cc4c3nc12 [Compound 27A, 14-oxo-7-(trifluoromethoxy)-17,18,19-triazatetracyclooctadeca-(4),1(8),2(7),3(9),5(10),6(17),11,13(18)-octaene-8-carboxylic acid] | 0 | 2.8 °C | –
18 | O=C(O)c1ccccc1Nc1c(C(=O)N2CCOCC2)cnc2ccc(OC(F)(F)F)cc12 [Compound 13A, 2-[[3-(morpholine-4-carbonyl)-6-(trifluoromethoxy)-4-quinolyl]amino]benzoic acid] | + | 5.6 °C | –
19 | N#Cc1cnc2ccc(OC(F)(F)F)cc2c1Nc1ccccc1C(=O)O [Compound 15A, 2-[[3-cyano-6-(trifluoromethoxy)-4-quinolyl]amino]benzoic acid] | – | 8.8 °C | –
20 | NS(=O)(=O)c1cnc2ccc(Br)cc2c1Nc1ccccc1C(=O)O [Compound 61A, 2-[(6-bromo-3-sulfamoyl-4-quinolyl)amino]benzoic acid] | +++ | 11.1 °C | –

The remaining lines, values ahead:

Row | Inhibition of PAPD5 RNA oligo adenylation (PAPD5 [1]) | ΔTm at 100 µM (PAPD5 [2]) | ΔTm 100 μM (PAPD5 [2]) | SMILES
21 | +++ | 4.9 °C | – | CCOC(=O)c1cnc2ccc(-n3ccc4cc(O)ccc43)cc2c1Nc1ccccc1C(=O)O [Compound 29A, 2-[[3-ethoxycarbonyl-6-(5-hydroxyindol-1-yl)-4-quinolyl]amino]benzoic acid]
22 | – | 0 °C | – | CC(=O)Nc1cccc(Nc2c(S(=O)(=O)N3CCOCC3)cnc3ccc(Br)cc23)c1C(=O)O [Compound 85A, 2-acetamido-6-[(6-bromo-3-morpholinosulfonyl-4-quinolyl)amino]benzoic acid]
23 | 0 | -0.1 °C | – | CCOC(=O)c1cnc2ccc(C(=O)N3CCNCC3)cc2c1Nc1ccccc1C(=O)O [Compound 18A, 2-[[3-ethoxycarbonyl-6-(piperazine-1-carbonyl)-4-quinolyl]amino]benzoic acid]
24 | – | 0 °C | – | COc1cccc(Nc2c(S(=O)(=O)N3CCOCC3)cnc3ccc(Cl)cc23)c1C(=O)O [Compound 79A-INT, 2-[(6-chloro-3-morpholinosulfonyl-4-quinolyl)amino]-6-methoxy-benzoic acid]
25 | – | 0 °C | – | COc1cccc(Nc2c(S(=O)(=O)N3CCN(C(=O)OCc4ccccc4)CC3)cnc3ccc(Br)cc23)c1C(=O)O [Compound 93A-INT, 2-[[3-(4-benzyloxycarbonylpiperazin-1-yl)sulfonyl-6-bromo-4-quinolyl]amino]-6-methoxy-benzoic acid]
26 | +++ | 13.5 °C | – | O=C(O)c1c(O)cccc1Nc1c(-c2ncco2)cnc2ccc(Cl)cc12 [Compound 82A, 2-[(6-chloro-3-oxazol-2-yl-4-quinolyl)amino]-6-hydroxy-benzoic acid]
27 | – | – | fluorescent | O=C(O)c1c(Nc2c(S(=O)(=O)N3CCOCC3)cnc3ccc(Br)cc23)ccc(Br)c1O [Compound 78A-BR, 3-bromo-6-[(6-bromo-3-morpholinosulfonyl-4-quinolyl)amino]-2-hydroxy-benzoic acid]
28 | + | 6.1 °C | – | CN(C)C(=O)c1cnc2ccc(OC(F)(F)F)cc2c1Nc1ccccc1C(=O)O [Compound 12A, 2-[[3-(dimethylcarbamoyl)-6-(trifluoromethoxy)-4-quinolyl]amino]benzoic acid]
29 | 0 | 0.6 °C | – | CCOC(=O)c1cnc2ccc(OC3CCNCC3)cc2c1Nc1ccccc1C(=O)O [Compound 19A, 2-[[3-ethoxycarbonyl-6-(4-piperidyloxy)-4-quinolyl]amino]benzoic acid]
30 | +++ | 4.6 °C | – | CCOC(=O)c1cnc2ccc(-c3cccc4[nH]ccc34)cc2c1Nc1ccccc1C(=O)O [Compound 23A, 2-[[3-ethoxycarbonyl-6-(1H-indol-4-yl)-4-quinolyl]amino]benzoic acid]
31 | +++ | 17.1 °C | – | O=C(O)c1c(O)cccc1Nc1c(S(=O)(=O)N2CCOCC2)cnc2ccc(Br)cc12 [Compound 78A, 2-[(6-bromo-3-morpholinosulfonyl-4-quinolyl)amino]-6-hydroxy-benzoic acid]
32 | – | 6.3 °C | – | NS(=O)(=O)c1cnc2ccc(-c3cccc4ncoc34)cc2c1Nc1ccccc1C(=O)O [Compound 64A, 2-[[6-(1,3-benzoxazol-7-yl)-3-sulfamoyl-4-quinolyl]amino]benzoic acid]
33 | – | 6.8 °C | – | Nc1cccc(Nc2c(S(=O)(=O)N3CCOCC3)cnc3ccc(Br)cc23)c1C(=O)O [Compound 85A-BP, 2-amino-6-[(6-bromo-3-morpholinosulfonyl-4-quinolyl)amino]benzoic acid]
34 | +++ | 13.9 °C | – | COCCCOc1cc2ncc(C#N)c(Nc3cccc(O)c3C(=O)O)c2cc1OC [Compound 55A, 2-[[3-cyano-6-methoxy-7-(3-methoxypropoxy)-4-quinolyl]amino]-6-hydroxy-benzoic acid]
